Entries after “also recorded” stand apart in the source; their conditions may differ.
What was measured:
BTBR T+tf/J (BTBR) mice [1] = test: Marble Burying test in BTBR mice; assay type: in vivo; conditions: melatonin 0.1 mg/kg orally for 10 days, FIG. 15C
Description: (§1) Furthermore, experimental tests were carried out to determine the synergy of the PEA-Melatonin-DHA combination administered orally to genetically modified BTBR T+tf/J (BTBR) mice, an animal model of neurobehavioral disorders of the ASD type.
(§2) To determine the synergy of a PEA-um, melatonin and DHA combination, a second experimentation was performed, using a different animal model useful for the study of neurobehavioral disorders, and more precisely BTBR mice. […]
(§3) The animals underwent the following behavioral tests: • The social interaction test, also known as a 3-chamber social test (FIGS. 2A, 2B and FIGS. 15A, 15B) to evaluate i) the interaction time of the animals with an unknown mouse and ii) the sociability index (ratio between the time spent by the mouse exploring the area without and with the new companion). […] In this phase of the test, parameters such as the time spent by the animal exploring i) the chambers and ii) the unfamiliar mouse were detected. • The Novel Object Recognition Test or NOR test (FIGS. 3A, 3B) to examine cognition and recognition memory by calculating the time spent by the animal exploring new objects with respect to familiar ones. […] The exploration time was counted from the moment the mice directly looked at and smelled the object at a distance of less than 2 cm. […]

[2] = tested on: mice in which an autistic phenotype was induced by valproic acid (VPA); test: VPA injection model of autism: overall activity in the study; assay type: in vivo, C57/BL6 mice
Description: (§4) To evaluate the synergy of a combination PEA-um and melatonin, experimental tests were carried out by oral administration (gastric tube) of a mixture of um-PEA and melatonin (approximately 10:1 ratio) at a dose of 10 mg/kg for two weeks in mice in which an autistic phenotype was induced by a single injection of valproic acid in the form of sodium valproate (VPA).
(§5) Healthy male C57/BL6 mice fed ad libitum and housed in cages with controlled sleep/wake cycles were used in the first experimentation. […]
(§6) The animals underwent the following behavioral tests: • The social interaction test, also known as a 3-chamber social test (FIGS. 2A, 2B and FIGS. 15A, 15B) to evaluate i) the interaction time of the animals with an unknown mouse and ii) the sociability index (ratio between the time spent by the mouse exploring the area without and with the new companion). […] In this phase of the test, parameters such as the time spent by the animal exploring i) the chambers and ii) the unfamiliar mouse were detected. • The Novel Object Recognition Test or NOR test (FIGS. 3A, 3B) to examine cognition and recognition memory by calculating the time spent by the animal exploring new objects with respect to familiar ones. […]

BTBR T+tf/J (BTBR) mice [3] = test: Social interaction test and 3-chamber social interaction test in BTBR mice; assay type: in vivo; conditions: melatonin 0.1 mg/kg orally for 10 days
Description: as §1, §2, §3

[4] = tested on: mice in which an autistic phenotype was induced by valproic acid (VPA); test: Thermal Nociception test (hot plate) in VPA mice; assay type: in vivo, C57/BL6 mice; conditions: melatonin at 1 mg/kg per os daily for 14 days, the worsening is significant, FIG. 6
Description: as §4, §5, §6

BTBR T+tf/J (BTBR) mice [5] = test: Self Grooming test in BTBR mice; assay type: in vivo; conditions: melatonin 0.1 mg/kg orally for 10 days, FIG. 15D
Description: as §1, §2, §3

[6] = tested on: mice with a simil-autistic phenotype; conditions: cited from earlier work
autistic children = conditions: um-PEA 600 mg/day, 3-month treatment; cited from earlier work

Compound	stereotyped repetitive behaviors (Marble Burying) (BTBR T+tf/J (BTBR) mice [1])	activity in the assessments of the VPA study (social interaction, sociability index, NOR, stereotypies, EPM) ([2]; melatonin at 1 mg/kg per os daily for 14 days, 1 mg/kg)	activity in the present study (VPA model) ([2]; melatonin at a dose of 10 mg/kg per os daily for 14 days)	social interaction behavioral test (BTBR T+tf/J (BTBR) mice [3]; FIG. 15A)	3-chamber social interaction test: side of the area where time is spent (BTBR T+tf/J (BTBR) mice [3]; FIG. 15B)	VPA-induced pain insensitivity (hot plate) [4]	stereotyped repetitive behaviors (Self Grooming) (BTBR T+tf/J (BTBR) mice [5])	altered behavioral status [6]	expression of the pro-inflammatory hippocampal and serum cytokines IL-6, IL-1β and TNF-α [6]	adverse effects (autistic children)	aggressiveness, cognitive and behavioral skills, and communication (autistic children)
COc1ccc2[nH]cc(CCNC(C)=O)c2c1 [melatonin, N-acetyl-5-methoxy tryptamine]	no improvement	inactive; also recorded: never shown to be active	active	no improvement	continuing to spend their time in the empty side	worsened	no improvement	–	–	–	–
CCCCCCCCCCCCCCCC(=O)NCCO [um-PEA, Ultra-micronized palmitoylethanolamide]	–	–	–	–	–	–	–	modulating	reducing	without adverse effects	improves

— patent publication US20230381121A1, “N-PALMITOYLETHANOLAMIDE AND MELATONIN FOR USE IN THE TREATMENT OF AUTISM SPECTRUM DISORDER AND OTHER NEUROBEHAVIORAL DISORDERS SIMILARLY ACCOMPANIED BY RESTLESSNESS, IRRITABILITY, SLEEP DISORDERS, AND POTENTIALLY STEREOTYPIES” (priority 2022, published 2023)
